Test results as given in PubChem BioAssay (NCI).
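Results reflect a 48-hour exposure of cells in 96-well plates to compound at five concentrations. GI50: concentration for 50% inhibition of growth. TGI marks complete inhibition of growth.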

What was measured:
Assay in all cases: NCI tumour cell line growth inhibition, 48 h
COLO 205 colon = test system: COLO 205 colon
A549 NSCLC = test system: A549 NSCLC
OVCAR-8 ovarian = test system: OVCAR-8 ovarian
UACC-257 melanoma = test system: UACC-257 melanoma
MDA-MB-435 = test system: MDA-MB-435
HOP-92 NSCLC = test system: HOP-92 NSCLC
ACHN renal = test system: ACHN renal
SF-539 CNS = test system: SF-539 CNS

SMILES	GI50 (COLO 205 colon) [µM]	TGI (COLO 205 colon) [µM]	GI50 (A549 NSCLC) [µM]	TGI (A549 NSCLC) [µM]	GI50 (OVCAR-8 ovarian) [µM]	TGI (OVCAR-8 ovarian) [µM]	GI50 (UACC-257 melanoma) [µM]	TGI (UACC-257 melanoma) [µM]	GI50 (MDA-MB-435) [µM]	TGI (MDA-MB-435) [µM]	GI50 (HOP-92 NSCLC) [µM]	TGI (HOP-92 NSCLC) [µM]	GI50 (ACHN renal) [µM]	TGI (ACHN renal) [µM]	GI50 (SF-539 CNS) [µM]	TGI (SF-539 CNS) [µM]
Cc1ccc(NC(=O)N2CCCCC2)cc1[N+](=O)[O-]	> 100	> 100	> 100	> 100	> 100	> 100	> 100	> 100	> 100	> 100	> 100	> 100	> 100	> 100	> 100	> 100
Oc1c(Cl)cc(CN(Cc2cc(Cl)c(O)c(Cl)c2)C2CCCCC2)cc1Cl		> 100		> 100		> 100		> 100		> 100		> 100		> 100		> 100
COc1cc2c(c(OC)c1OC)C(=O)c1c-2n(CCCN=[N+]=[N-])c(=O)c2cc([N+](=O)[O-])ccc12	> 100	> 100	> 100	> 100	72.3	> 100	> 100	> 100	> 100	> 100					39.2	> 100
CCOc1ccc2c(c1)C(=O)c1c-2n(CCCN)c(=O)c2cc([N+](=O)[O-])ccc12	0.361	2.11	0.137	1.13	0.0168	0.147	1.19	2.44	0.294	1.95	0.0969	1.91	0.0101	1.17	0.0517	0.209
CN(N=O)C(=O)Nc1ccc(C(=O)O)cc1		> 100		> 100		> 100		> 100		> 100		> 100		> 100		> 100
O=C(Nc1nc(-c2ccccc2)cs1)c1cc(O)c(O)c(O)c1	10.8	30.1	5.62	51.4	3.38	> 100	7.84	52.1	5.59	56.2	1.56	9.66	2.47	56.3	2.77	11.9
C=C(CN(C)Cc1ccccc1)c1ccc(C(=O)Nc2ccccc2N)cc1	7.72	17.6	5.19	19.1	1.56	14.4			1.42	5.7	3.36	24.5			2.02	12.1
COC(=O)C1=CO[C@@H](OC2OC(CO)C(O)C(O)C2O)[C@@H]2[C@H](C)[C@@H](O)[C@@H](O)[C@]12O (some centres undefined)		> 100		> 100		> 100		> 100		> 100		> 100		> 100		> 100
COC(=O)[C@@H]1[C@H](O)[C@H](C)[C@H](O)[C@H](C)/C=C\C=C(C)C(=O)Nc2c(C)c(OC(C)=O)c3c(c2O)C(=O)C(C)=C2OCOC(=C23)C(C)=C[C@@](C)(O)[C@H](O)[C@@H](C)[C@H]1OC(C)=O						> 100		76.6				> 100		> 100		
CCOC(=O)Nc1ccc(C(=O)/C=C/c2ccccc2)cc1	20.3	47.6	30.1	> 100	33.5	> 100	55	> 100	5.13	> 100	11.2	66.5	22.2	52.3	20.2	46.3
CCCC(CCC)Oc1ccc(CCCC2=C(O)c3ccccc3C(=O)C2=O)cc1	6.7	32.3	4.11	22.4	10.2	69.7	7.07	43.1	4.72	17.6			6.69	19	5.43	18.7
CC(=O)Oc1ccccc1C(=O)NCCC[Se]C#N	12.8	29.9	1.84	3.6	1.95	4.1			2.19	5.16	1.49	3.05	2.29	4.3	2.04	3.87
CCCC(=O)O[C@]1(C)CC[C@@H]2[C@H]3[C@@H]1[C@@H]1C/C(C)=C\CC[C@](C)(OC(=O)[C@@H]2C)[C@H]3O1	43.2	> 100	40.1	> 100	47.6	> 100	43.3	> 100	32.6	> 100			36.2	> 100	> 100	> 100
COC(=O)c1ccc(NC(N)=NCC(C)(C)COc2ccc(C(F)(F)F)cc2)nc1	1.63	3.23	1.63	3.17			1.69	3.27			1.23	2.57	1.59	2.93	1.71	3.13
C/C=C/C=C/CCCCCCCCCCCCC[C@]1(OC)C=CC(CC(=O)OC)OO1 (some centres undefined)	18.9	36.1	35	> 100	17.6	37.7		45.6					16.6	31.4		35.3
O=C(NCCNC(=O)c1ccc(F)cc1)Nc1ccc(-n2cc(-c3ccncc3)c(-c3ccc(Cl)c(O)c3)n2)cc1			1.75	9.38	0.491	> 100	1.37	5.89	0.189	0.577	0.465	5.23	2.32	9.64	0.253	0.957
CCCCCCCC(=O)NS(=O)(=O)c1ccccc1		> 100		> 100		> 100				> 100				> 100		> 100
NC(=S)N/N=C/c1ccc(OC(=O)COc2ccccc2)cn1	33.3	> 100	30	> 100	3.26	> 100	14.7	88.9	10.9	> 100			3.65	> 100	2.94	10.9
